Reference: ChEMBL document CHEMBL4002550, “Fragment-based discovery of novel pentacyclic triterpenoid derivatives as cholesteryl ester transfer protein inhibitors” (Eur J Med Chem, 2017)

Each molecule was assayed against T1, Cholesteryl ester transfer protein (Homo sapiens, UniProt P11597) (assay: Inhibition of recombinant full length human CETP expressed in CHO cells assessed as reduction in BODIPY-CE transfer measured after 1 to 3 hrs by fluorescence assay).
T1 sequence (P11597 whole entry): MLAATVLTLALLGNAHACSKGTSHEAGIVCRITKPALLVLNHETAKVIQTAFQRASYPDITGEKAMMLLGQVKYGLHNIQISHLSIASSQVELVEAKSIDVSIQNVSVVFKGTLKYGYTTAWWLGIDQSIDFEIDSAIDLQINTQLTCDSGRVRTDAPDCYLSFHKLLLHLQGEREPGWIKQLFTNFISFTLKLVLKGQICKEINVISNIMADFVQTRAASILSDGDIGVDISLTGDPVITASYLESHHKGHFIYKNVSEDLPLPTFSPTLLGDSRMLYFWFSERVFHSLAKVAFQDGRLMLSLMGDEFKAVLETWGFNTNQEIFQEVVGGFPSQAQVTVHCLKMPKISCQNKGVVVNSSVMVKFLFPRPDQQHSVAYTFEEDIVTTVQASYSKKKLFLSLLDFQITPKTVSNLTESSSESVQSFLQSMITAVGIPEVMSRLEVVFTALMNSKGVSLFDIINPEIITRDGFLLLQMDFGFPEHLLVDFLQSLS
Type: cell-based

Row | IC50 [µM] | Compound
1 | 3.79 | CCOC(=O)N1c2ccc(C(F)(F)F)cc2[C@@H](NC(=O)CCCC(=O)O[C@H]2CC[C@]3(C)[C@H]4CC=C5[C@@H]6[C@@H](C)[C@H](C)CC[C@]6(C(=O)O)CC[C@@]5(C)[C@]4(C)CC[C@H]3C2(C)C)C[C@H]1CC
2 | > 50 | CCOC(=O)N1c2ccc(C(F)(F)F)cc2[C@@H](NC(=O)CCC(=O)O[C@H]2CC[C@]3(C)[C@H]4CC=C5[C@@H]6CC(C)(C)CC[C@]6(C(=O)O)CC[C@@]5(C)[C@]4(C)CC[C@H]3C2(C)C)C[C@H]1CC
3 | 0.28 | CCOC(=O)N1c2ccc(C(F)(F)F)cc2[C@@H](NC(=O)CCC(=O)O[C@H]2CC[C@]3(C)[C@H]4CC=C5[C@@H]6[C@@H](C)[C@H](C)CC[C@]6(C(=O)O)CC[C@@]5(C)[C@]4(C)CC[C@H]3C2(C)C)C[C@H]1CC
4 | > 50 | CCOC(=O)N1c2ccc(C(F)(F)F)cc2[C@@H](NC(=O)CCCC(=O)O[C@H]2CC[C@]3(C)[C@H]4CC=C5[C@@H]6CC(C)(C)CC[C@]6(C(=O)O)CC[C@@]5(C)[C@]4(C)CC[C@H]3C2(C)C)C[C@H]1CC
5 | > 50 | CCOC(=O)N1c2ccc(C(F)(F)F)cc2[C@@H](NC(=O)CC(=O)O[C@H]2CC[C@]3(C)[C@H]4CC=C5[C@@H]6CC(C)(C)CC[C@]6(C(=O)O)CC[C@@]5(C)[C@]4(C)CC[C@H]3C2(C)C)C[C@H]1CC
6 | 4.42 | CCOC(=O)N1c2ccc(C(F)(F)F)cc2[C@@H](NC(=O)CC(=O)O[C@H]2CC[C@]3(C)[C@H]4CC=C5[C@@H]6[C@@H](C)[C@H](C)CC[C@]6(C(=O)O)CC[C@@]5(C)[C@]4(C)CC[C@H]3C2(C)C)C[C@H]1CC
